Assay results: patent US9187784B2, “EphA4 is a disease modifier in motor neuron disease” (VIB VZW, priority 2011, dated 2015)

Columns and labels:
[1] = system: zebrafish embryos with knockdown of Smn; assay: rescue of motor axon phenotype induced by knockdown of Smn (SMA model); type: in vivo
Method: FIG. 14: Inhibiting EphA4 signaling rescues motor axonopathies induced by overexpression of mutant TDP-43 and knockdown of Smn. Y-axes show motor axon length of zebrafish embryos (30 hpf) expressing TDP^WT (black bar) or TDP^A315T (white bar) (Panels A, B) or with unaltered (black bar) or reduced expression levels of Smn (white bar) (Panels C, D). Smn knockdown was established by injection of 3 ng (Panel C) or 6 ng (Panel D) atg-smn morpholino. Ctr-smn morpholino was injected as control. RTK1 signaling was inhibited by injection of 3 ng atg-RTK1 morpholino (shaded bars) (Panels A, C) or by treatment with C1 (500 μM, shaded bars) (Panels B, D). Injection of ctr-RTK1 morpholino and application of a 1/250 dilution of DMSO were used as control. […]
A morpholino database of translation-blocking morpholinos (atg-mo) was used to perform a morpholino-based knockdown screening in a zebrafish model for ALS.^13 The standard control morpholino (5′-[…]-′3) (SEQ ID NO:4), provided by Gene tools, was used as control. Three nanograms of morpholino were co-injected with 1.43 ng of SOD1 mRNA and the effect of gene knockdown on the mutant SOD1-induced axonopathy analyzed. […]

[2] = system: RTK1; assay: RTK1 expression by Western blot and whole-mount immunostaining of zebrafish embryos; type: in vivo; settings: Western blot of zebrafish embryos and whole-mount immunostaining of rhombomeres, 4.5 ng
Description: FIG. 1: EphA4 knockdown rescues mutant SOD1-induced motor axonopathy. […] Abnormal branching is indicated with arrowhead. Y-axes show motor axon length of zebrafish embryos expressing wild-type SOD1 (black bar, Panels D-G) or mutant SOD1 (white bar, Panels D-G). Knockdown of RTK2 in SOD1A4V- (Panel D), SOD1G93A- (Panel E) and SOD1G37R- (Panel F) expressing fish was established by co-injection of increasing amounts of atg-RTK2 morpholino (shaded bars). RTK1 expression was inhibited in SOD1A4V-expressing fish by co-injection of atg-RTK1 morpholino (shaded bars, Panel G). Ctr-RTK2 and ctr-RTK1 were used as control. ANOVA and Bonferroni's multiple comparison tests were used for statistical analysis. […]
Mice spinal cord and 30 hpf old, dechorionated and deyolked zebrafish embryos, and NSC-43 cells were homogenized in buffer: 50 mM Triz/HCl, pH 7.5, 120 mM NaCl, 1% TRITON® X-100, 1 mM sodium orthovanadaat, 2 mM PMSF, complete protease inhibitor (Roche). Protein concentration was determined using the micro-BCA protein assay reaction kit 207 (Pierce). […]

5′-CTGTGAACACAAGCGCAGCCATTGG-′3 (all phosphorodiamidate morpholino (PMO)) [atg-RTK1]
effect on motor axon phenotype induced by knockdown of Smn [1]: rescued the motor axon phenotype induced by knockdown of Smn
RTK1 expression [2]: efficiently blocked RTK1 expression
